Laboratory results taken from publication PMC11604048, “Constrained TACC3 peptidomimetics for a non-canonical protein–protein interface elucidate allosteric communication in Aurora-A kinase” (Chemical Science, 2024).
Like-named read-outs stand apart in the source and are kept apart here. Each block holds one compound with its values, some of them ahead of it. *1 amine or outer side, *2 acyl side, *3 side chain or, on linkers, in order; H or OH if unused. Where a SMILES comes first, the peptide text is derived from it. Bridges are numbered along the chain shown (N, C = ends). [ ]: non-standard residue; d: D form. Biphenyl(4,4'-CH2)2 = c1cc(-c2ccc(C[*:2])cc2)ccc1C[*:1]; Maleimide(3,4-diyl) = O=C1NC(=O)C([*:2])=C1[*:1]; Pro(trans-4-F) = O=C(O)[C@@H]1C[C@@H](F)CN1; Phe(4-Br) = N[C@@H](Cc1ccc(Br)cc1)C(=O)O

Target: T1, Aurora-A122-403-C290A/C393A (Homo sapiens, UniProt O14965, C290A/C393A)
T1 construct: Human Aurora-A kinase domain 122-403 wild-type or C290A/ C393A mutant; His tag (pET30TEV vector) (N, cleaved yes); made in house; host or cells: E. coli RIL, co-expressed with lambda phosphatase (Aurora-A); tracer by solid phase synthesis
T1 sequence (O14965 122-403 C290A/C393A): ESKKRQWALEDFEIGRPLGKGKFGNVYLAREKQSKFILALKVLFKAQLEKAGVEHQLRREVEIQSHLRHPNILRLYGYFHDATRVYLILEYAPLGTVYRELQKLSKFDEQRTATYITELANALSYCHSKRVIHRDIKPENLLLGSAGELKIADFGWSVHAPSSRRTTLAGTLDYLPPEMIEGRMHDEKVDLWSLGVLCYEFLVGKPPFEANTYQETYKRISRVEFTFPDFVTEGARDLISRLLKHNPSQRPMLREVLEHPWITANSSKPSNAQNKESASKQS
Assay: Competition FA assay against FAM-Ahx-TACC3 522-536 tracer
Type: binding
Details: for fold enhanced inhibitory potency (IC50) compared to the WT peptide: competition FA IC50 ratio vs WT
Description: Once completed, the mixtures were transferred into SPPS fritted reaction vessels and washed with H2O (5X, 10 mL, 2 min), DMF (5X, 5mL, 2 min) and DCM (5X, 5 mL, 2 min). The clean resins were dried under vacuum and the cyclic peptides cleaved from the resin following the general procedures described in previous sections. After Et2O precipitation, the crude materials were freeze-dried and redissolved in H2O/MeCN/TFA 90/10/0.1% v/v for preparative HPLC purification.
All disulfide peptide variants (ox) were produced in situ from their free-thiol solid precursors. For this, 2 mg of the pure peptide materials were dissolved in aqueous DMSO 33% v/v to a 10 mM concentration and were left open to air oxidation at room temperature overnight. […]
the peptides were employed for FA competition assays and IC50 evaluation without further additional […]
Fluorescence anisotropy (FA) assays – General information.
All assays were performed using 384-well plates(Greiner Bio-one, UK). […]
produced as described previously.11 All samples were prepared in 25 mM Tris,150 mM NaCl, 5 mM MgCl2, pH= 7.5, unless otherwise stated, and tested in triplicate using an EnVisionTM 2103 MultiLabel plate reader (PerkinElmer; Waltham, MA, USA).The parameters were set as follows: Excitation wavelength = 480 nm (30 nm bandwidth) and emission wavelength = 535 nm (30 nm bandwidth). Measured data were processed and analysed as previously described.12 Specifically, the perpendicular intensity (P) and parallel intensity (S) were subtracted by the control values and used for calculations of intensity and anisotropy using the following Equations 1, 2, 3, 4, and 5:
I= (2PG) + S Eq. (SI − 5)
r = (S − PG) Eq. (SI − 6)
L = r − r௠௜௡ Eq. (SI − 7)
y = (k + x + [FL]) − ඥ(k + x + [FL]2 − 4 ∗ x ∗ [FL]) Eq. (SI − 8)
y = r + r௠௜௡ − r௠௔௫ Eq. (SI − 9)
Where I = total intensity; P = perpendicular intensity; S = parallel intensity; G = instrument factor; r = anisotropy; Lb = ligand bound fraction; λ = change in intensity between bound and unbound states which […]
FA direct binding assays. […]
starting from 700 μM, diluted over 24 points in a 1/2 regime using the FAM-Ahx-labeled peptides at a final fixed concentration of 50 nM per well.
FA competition assays were performed using the same plates and buffer as described above, with the initial […]
14 points in a 1/2 regime. […]
after 4 h of incubation to enable appropriate sample equilibration. To prevent sample oxidation, when sulfhydryl peptides were analyzed DTT was added to the buffer (5 mM). In competition mode, the average anisotropy and the average standard deviation of the values derived from equation SI-6 were calculated and fit to a sigmoidal logistic model (equation SI-9) using Origin 2021. When using peptides for which full […]
For consistency, all the data […]
indicating the corresponding SD. […]

[1] = as E1, Table S3 (mal): maleimide-constrained species, WT value is an individual replica control assay, mean ± SD, n = 3, SD, read-out: IC50 (mal)
[2] = as E1, oxidised (disulfide) species made in situ from 10 mM stock in aqueous DMSO 33% v/v, air, overnight, WT control (+DMSO) given the same DMSO incubation, mean ± SD, n = 3, read-out: IC50 (ox)
[3] = as E1, free-sulfhydryl (reduced) species, DTT 5 mM in buffer, WT control (+DTT), mean ± SD, n = 3, read-out: IC50 (red)

Compound: CC(=O)N[C@@H](CC(C)C)C(=O)N[C@@H](CCC(=O)O)C(=O)N[C@H]1CSCc2ccc(cc2)-c2ccc(cc2)CSC[C@@H](C(=O)N[C@@H](CC(=O)O)C(=O)N2CCC[C@H]2C(=O)N[C@@H](C)C(=O)N[C@@H](CCC(=O)O)C(=O)N[C@H](C(=O)N[C@@H](CC(C)C)C(N)=O)C(C)C)NC(=O)[C@H](Cc2ccccc2)NC(=O)[C@H](CO)NC(=O)[C@H](CCC(=O)O)NC(=O)[C@H](CCC(=O)O)NC(=O)[C@H](CCCCN)NC1=O [TACC3 518-532 L520C/R526C (Bph)] (Ac-LECKEESFCDPAEVL-NH2; linker 3-9 via Biphenyl(4,4'-CH2)2)
fold enhanced inhibitory potency (IC50) compared to the WT peptide: up to 4 fold

Compound: CC(=O)N[C@@H](CC(C)C)C(=O)N[C@@H](CCC(=O)O)C(=O)N[C@@H](CC(C)C)C(=O)N[C@@H](CCCCN)C(=O)N[C@@H](CCC(=O)O)C(=O)N[C@@H](CCC(=O)O)C(=O)N[C@H]1CSCc2ccc(cc2)-c2ccc(cc2)CSC[C@@H](C(=O)N[C@H](C(=O)N[C@@H](CC(C)C)C(N)=O)C(C)C)NC(=O)[C@H](C)NC(=O)[C@@H]2CCCN2C(=O)[C@H](CC(=O)O)NC(=O)[C@H](CCCNC(=N)N)NC(=O)[C@H](Cc2ccccc2)NC1=O [TACC3 518-532 S524C/E530C (Bph)] (Ac-LELKEECFRDPACVL-NH2; linker 7-13 via Biphenyl(4,4'-CH2)2)
fold enhanced inhibitory potency (IC50) compared to the WT peptide: up to 4 fold

Compound: CC(=O)N[C@@H](CC(C)C)C(=O)N[C@@H](CCC(=O)O)C(=O)N[C@H]1CSCc2ccc(cc2)-c2ccc(cc2)CSC[C@@H](C(=O)N[C@@H](CC(=O)O)C(=O)N2C[C@H](F)C[C@H]2C(=O)N[C@@H](C)C(=O)N[C@@H](CCC(=O)O)C(=O)N[C@H](C(=O)N[C@@H](CC(C)C)C(N)=O)C(C)C)NC(=O)[C@H](Cc2ccc(Br)cc2)NC(=O)[C@H](CO)NC(=O)[C@H](CCC(=O)O)NC(=O)[C@H](CCC(=O)O)NC(=O)[C@H](CCCCN)NC1=O [TACC3 518-532-L/R-Bph-BrF/fP] (Ac-LECKEES[Phe(4-Br)]CD[Pro(trans-4-F)]AEVL-NH2; linker 3-9 via Biphenyl(4,4'-CH2)2)
IC50 (SD, read-out: IC50): 22 ± 1 µM

Compound: CC(=O)N[C@@H](CC(C)C)C(=O)N[C@@H](CCC(=O)O)C(=O)N[C@@H](CC(C)C)C(=O)N[C@@H](CCCCN)C(=O)N[C@@H](CCC(=O)O)C(=O)N[C@@H](CCC(=O)O)C(=O)N[C@H]1CSCc2ccc(cc2)-c2ccc(cc2)CSC[C@@H](C(=O)N[C@H](C(=O)N[C@@H](CC(C)C)C(N)=O)C(C)C)NC(=O)[C@H](C)NC(=O)[C@@H]2C[C@@H](F)CN2C(=O)[C@H](CC(=O)O)NC(=O)[C@H](CCCNC(=N)N)NC(=O)[C@H](Cc2ccc(Br)cc2)NC1=O [TACC3 518-532-S/E-Bph-BrF/fP] (Ac-LELKEEC[Phe(4-Br)]RD[Pro(trans-4-F)]ACVL-NH2; linker 7-13 via Biphenyl(4,4'-CH2)2)
IC50 (SD, read-out: IC50): 16 ± 1 µM

Compound: CC(=O)N[C@@H](CCC(=O)O)C(=O)N[C@@H](CCC(=O)O)C(=O)N[C@@H](CO)C(=O)N[C@@H](Cc1ccccc1)C(=O)N[C@@H](CCCNC(=N)N)C(=O)N[C@H]1CSC2=C(SC[C@@H](C(=O)N[C@H](C(=O)N[C@@H](CC(C)C)C(=O)NCC(=O)N[C@H](C(=O)NCC(=O)N[C@@H](C)C(N)=O)[C@@H](C)O)C(C)C)NC(=O)[C@H](C)NC(=O)[C@@H]3CCCN3C1=O)C(=O)NC2=O [TACC3 522-536 D527C/E530C (mal)] (Ac-EESFRCPACVLGTGA-NH2; linker 6-9 via Maleimide(3,4-diyl))
IC50 [1]: 186 ± 50 µM

Compound: CC(=O)N[C@@H](CCC(=O)O)C(=O)N[C@@H](CCC(=O)O)C(=O)N[C@@H](CO)C(=O)N[C@@H](Cc1ccccc1)C(=O)N[C@@H](CCCNC(=N)N)C(=O)N[C@H]1CSSC[C@@H](C(=O)N[C@H](C(=O)N[C@@H](CC(C)C)C(=O)NCC(=O)N[C@H](C(=O)NCC(=O)N[C@@H](C)C(N)=O)[C@@H](C)O)C(C)C)NC(=O)[C@H](C)NC(=O)[C@@H]2CCCN2C1=O [TACC3 522-536 D527C/E530C (ox)] (Ac-EESFRCPACVLGTGA-NH2; disulfide 6-9)
IC50 [2]: ≥ 500 µM

Compound: CC(=O)N[C@H]1CSCc2ccc(cc2)-c2ccc(cc2)CSC[C@@H](C(=O)N[C@@H](C)C(=O)N[C@@H](CCC(=O)O)C(=O)N[C@H](C(=O)N[C@@H](CC(C)C)C(=O)NCC(=O)N[C@H](C(=O)NCC(=O)N[C@@H](C)C(N)=O)[C@@H](C)O)C(C)C)NC(=O)[C@H](CC(=O)O)NC(=O)[C@H](CCCNC(=N)N)NC(=O)[C@H](Cc2ccccc2)NC(=O)[C@H](CO)NC(=O)[C@H](CCC(=O)O)NC1=O [TACC3 522-536 E522C/P528C (Bph)] (Ac-CESFRDCAEVLGTGA-NH2; linker 1-7 via Biphenyl(4,4'-CH2)2)
IC50 (as E1, Table S3 column (Bph): biphenyl-constrained species, WT value is an individual replica control assay, mean ± SD, n = 3, SD, read-out: IC50 (Bph)): 280 ± 32 µM

Compound: CC(=O)N[C@H]1CSSC[C@@H](C(=O)N[C@@H](C)C(=O)N[C@@H](CCC(=O)O)C(=O)N[C@H](C(=O)N[C@@H](CC(C)C)C(=O)NCC(=O)N[C@H](C(=O)NCC(=O)N[C@@H](C)C(N)=O)[C@@H](C)O)C(C)C)NC(=O)[C@H](CC(=O)O)NC(=O)[C@H](CCCNC(=N)N)NC(=O)[C@H](Cc2ccccc2)NC(=O)[C@H](CO)NC(=O)[C@H](CCC(=O)O)NC1=O [TACC3 522-536 E522C/P528C (ox)] (Ac-CESFRDCAEVLGTGA-NH2; disulfide 1-7)
IC50 [2]: ≥ 500 µM

Second part, the compound after the results:

IC50 [1]: 483 ± 58 µM
Compound: CC(=O)N[C@@H](CCC(=O)O)C(=O)N[C@@H](CCC(=O)O)C(=O)N[C@@H](CO)C(=O)N[C@@H](Cc1ccccc1)C(=O)N[C@@H](CCCNC(=N)N)C(=O)N[C@@H](CC(=O)O)C(=O)N1CCC[C@H]1C(=O)N[C@H]1CSC2=C(SC[C@@H](C(=O)NCC(=O)N[C@H](C(=O)NCC(=O)N[C@@H](C)C(N)=O)[C@@H](C)O)NC(=O)[C@H](C(C)C)NC(=O)[C@H](CCC(=O)O)NC1=O)C(=O)NC2=O [TACC3 522-536 A529C/L532C (mal)] (Ac-EESFRDPCEVCGTGA-NH2; linker 8-11 via Maleimide(3,4-diyl))

IC50 [2]: ≥ 500 µM
Compound: CC(=O)N[C@@H](CCC(=O)O)C(=O)N[C@@H](CCC(=O)O)C(=O)N[C@@H](CO)C(=O)N[C@@H](Cc1ccccc1)C(=O)N[C@@H](CCCNC(=N)N)C(=O)N[C@@H](CC(=O)O)C(=O)N1CCC[C@H]1C(=O)N[C@H]1CSSC[C@@H](C(=O)NCC(=O)N[C@H](C(=O)NCC(=O)N[C@@H](C)C(N)=O)[C@@H](C)O)NC(=O)[C@H](C(C)C)NC(=O)[C@H](CCC(=O)O)NC1=O [TACC3 522-536 A529C/L532C (ox)] (Ac-EESFRDPCEVCGTGA-NH2; disulfide 8-11)

IC50 [3]: ≥ 500 µM
Compound: CC(=O)N[C@@H](CCC(=O)O)C(=O)N[C@@H](CCC(=O)O)C(=O)N[C@@H](CO)C(=O)N[C@@H](Cc1ccccc1)C(=O)N[C@@H](CCCNC(=N)N)C(=O)N[C@@H](CC(=O)O)C(=O)N1CCC[C@H]1C(=O)N[C@@H](CS)C(=O)N[C@@H](CCC(=O)O)C(=O)N[C@H](C(=O)N[C@@H](CS)C(=O)NCC(=O)N[C@H](C(=O)NCC(=O)N[C@@H](C)C(N)=O)[C@@H](C)O)C(C)C [TACC3 522-536 A529C/L532C (red)] (Ac-EESFRDPCEVCGTGA-NH2)

IC50 [3]: ≥ 500 µM
Compound: CC(=O)N[C@@H](CCC(=O)O)C(=O)N[C@@H](CCC(=O)O)C(=O)N[C@@H](CO)C(=O)N[C@@H](Cc1ccccc1)C(=O)N[C@@H](CCCNC(=N)N)C(=O)N[C@@H](CS)C(=O)N1CCC[C@H]1C(=O)N[C@@H](C)C(=O)N[C@@H](CS)C(=O)N[C@H](C(=O)N[C@@H](CC(C)C)C(=O)NCC(=O)N[C@H](C(=O)NCC(=O)N[C@@H](C)C(N)=O)[C@@H](C)O)C(C)C [TACC3 522-536 D527C/E530C (red)] (Ac-EESFRCPACVLGTGA-NH2)
